The term fraction remaining denotes what is left of the initial amount, in per cent. A lower fraction remaining goes with more turnover.

Converted amounts (≈) assume the structure as drawn. Non-standard residues stand in square brackets, D forms with d. Residues, ends and D or L forms follow the SMILES beside them. ξ: configuration not given here. ξAhp(2) = CCCCCC(N)C(=O)O

For one series, the system named is P. aeruginosa 27853. The class given is cell-based, Pseudomonas aeruginosa. In a few lines:
(§1)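 MHB broth microdilution; inoculum 0.5–1 × 10⁶ CFU mL^−1 final, log phase. Peptide dilutions in 0.2% BSA, equal volumes with cells. 37 °C, 20–22 h. Read A492.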

The test system of a further series is P. aeruginosa PAO1. The series is classed as cell-based, Pseudomonas aeruginosa. In a few lines: as §1
The test system of another series is MRSA 43300. The class given is cell-based, Methicillin-Resistant Staphylococcus aureus. In a few lines:
as §1

A further series relates to E. faecalis 29212. The class given is cell-based, Enterococcus faecalis. In a few lines: as §1
The subject of series [1] is E. coli ATCC 25922. Nature of the series: Serum tolerance assay (MIC after incubation with serum). The class given is cell-based, Escherichia coli. The following applies: 4 h of incubation with various serum concentrations. As to the method: The serum stability of nano‐short peptides was evaluated by incubating peptide solutions with fetal bovine serum (FBS), which was at concentrations of 25%, 50%, and 100% (diluted in 0.2% BSA solution). Following 4 h of incubation, the antimicrobial activity was determined by measuring the MIC against the test strains.

Series [2] concerns clinically isolated strains. The series can be described thus: MIC against clinically isolated strains (panel). The class given is cell-based. The following applies: all four clinical strains of Figure 4G. As to the method:
The MIC values of the nano‐short peptides were determined according to standard protocols.^[ [63] ^] Bacterial strains were revived from cryopreservation and cultured in Mueller–Hinton broth (MHB) to logarithmic growth phase, then diluted to a final density of 0.5–1 × 10⁶ CFU mL^−1. Serial dilutions of the nano‐short peptides were prepared in 0.2% bovine serum albumin (BSA) using a 96‐well plate format. Equal volumes of peptide solutions and bacterial suspensions were combined and incubated at 37 °C for 20–22 h. Bacterial growth was assessed by measuring absorbance at 492 nm, with MHB alone (negative control) and untreated bacterial suspension (positive control) included for reference.

Series [3] is described as follows: Critical aggregation concentration, 1,8-ANS fluorescence. To be noted: 1,8-ANS 1 × 10^−6 M, peptide 2-256 × 10^−6 M in deionized water, 1 h, ex 360 nm, em 420–670 nm, linear fitting of fluorescence intensities. The class given is physicochemical. As to the method: The self‐assembly behavior of nano‐short peptides was characterized by determining the CAC using 1,8‐ANS as a hydrophobic fluorescent probe.^[ [32] ^] Serial peptide dilutions (2‐256 × 10^−6 M in 50 µL deionized water) were prepared in 96‐well plates. 1,8‐ANS powder was solubilized in dimethylformamide (DMF) and added to the 96‐well plates (final concentration of 1 × 10^−6 M), and deionized water solution containing 1,8‐ANS was used as a blank control. After incubation for 1 h, the fluorescence emission spectra were continuously monitored with a microplate reader (Tecan Infinite200 Pro, λ excitation = 360 nm, λ emission = 420–670 nm). CAC values were determined by linear fitting of representative fluorescence intensities.

Series [4] deals with S. aureus ATCC 29213. Nature of the series: Cell wall permeability, NPN. The class given is cell-based, Staphylococcus aureus. The following applies: n = 3. As to the method:
The NPN fluorescent probe was used to assess the permeability of cell wall.^[ [64] ^] A logarithmic phase culture of S. aureus ATCC 29213 bacterial solution was diluted to OD600 = 0.2 in a 5 × 10^−3 M HEPES buffer (pH = 7.4 with 5 × 10^−3 M glucose). Following the addition of NPN (final concentration: 10 × 10^−6 M), the mixture was incubated for 30 min in the dark. Subsequently, the bacterial suspension was mixed with an equal volume of nano‐short peptides solution at different concentrations. […] Fluorescence intensity was measured (excitation λ = 350 nm, emission λ = 420 nm) using a microplate reader. The percentage of outer membrane permeability was calculated as: Permeability% = [(F treated – F negative control)/(F positive control – F negative control)] × 100%.

For series [5], the system named is E. coli ATCC 25922. Nature of the series: Intracellular ATP determination. The series is classed as cell-based, Escherichia coli. The following applies: 16 × 10^−6 M, E. coli ATCC 25922, 1 h, 37 °C; n = 3. As to the method:
(§2) The intracellular ATP levels of E. coli ATCC 25922 and S. aureus ATCC 29213 after nano‐short peptides treatment were detected using an Enhanced ATP Assay Kit.^[ [59] ^] Logarithmic growth stage E. coli ATCC 25922 and S. aureus ATCC 29213 bacterial solutions were diluted to OD600 = 0.4 in MHB liquid medium. Then, the bacterial dilutions were co‐incubated with different concentrations of nano‐short peptides at 37 °C for 1 h. After incubation, the bacterial dilutions were centrifuged (12 000 rpm, 5 min, 4 °C) to pellet the cells. The resulting bacterial pellets were processed according to the steps in the kit. Finally, the chemiluminescence was detected by a microplate reader.

For series [6], the system named is S. aureus ATCC 29213. The series can be described thus: Intracellular ATP determination. The series is classed as cell-based, Staphylococcus aureus. The following applies: 16 × 10^−6 M, S. aureus ATCC 29213, 1 h, 37 °C; n = 3. As to the method: as §2
A further series deals with ICR female mice. Nature of the series: In vivo toxicity of N4. On the set-up: species or system mouse. As to the method: Animal experiments were conducted in accordance with the Guide for the Care and Use of Laboratory Animals at Northeast Agricultural University (NEAU‐[2011]‐9). The experimental subjects comprised female ICR mice, aged 6 to 8 weeks and weighing 19 ± 1.1 g, sourced from Liaoning Changsheng Biotechnology Co. Thirty‐two mice were randomly divided into four groups after a 3‐day pre‐feeding period, followed by intraperitoneal injections of N4 at different doses (5, 10, and 20 mg kg^−1) to assess its toxicity, with saline treatment serving as the control group. Following injection, behavioral alterations were observed over a brief duration (0.5, 1, 4, and 8 h), and then body weight changes were monitored for 3 days. On the third day, the mice were euthanized via ether inhalation anesthesia, and blood samples were collected from the orbital vein for biochemical analysis, which was used to determine the levels of ALT, ALP, BUN, CREA, and TBIL. Subsequently, the liver, spleen, and kidneys were taken to determine organ coefficients. The relative organ weights were calculated using the formula: relative organ weight (%) = (organ weight/mouse body weight) × 100%. These organs were then fixed in 4% paraformaldehyde, following established protocols, for subsequent histological examination.^[ [70] ^]

The next series is described as follows: in vitro. To be noted: female, ICR, mouse, serum. The method, then:
N4 was incubated with serum isolated from mice for different durations (0, 1, 2, 4, 8, 12 h), followed by RP‐HPLC analyses to determine the retention rate.^[ [48] ^]

Setting [7] is: 5, 10, 20 mg kg^−1 intraperitoneal, day 3, p > 0.05, n = 8.

In the case of `N=C(N)NCCC[C@H](NC(=O)[C@@H](CCCNC(=N)N)NC(=O)[C@H](Cc1cccc2ccccc12)NC(=O)[C@H](Cc1cccc2ccccc12)NC(=O)[C@H](Cc1cccc2ccccc12)NC(=O)[C@@H](N)Cc1cccc2ccccc12)C(=O)N[C@@H](CCCNC(=N)N)C(=O)N1CCC[C@H]1C(=O)O` (stereo in doubt) [Peptide N4], in the series with P. aeruginosa 27853, the “MIC, P. aeruginosa 27853” value was 8 µM (≈ 11 µg/mL). For the same compound, the “MIC, P. aeruginosa PAO1” value with P. aeruginosa PAO1 worked out at 4 µM (≈ 5.49 µg/mL). Moreover, the “MIC, MRSA 43300” value in the series with MRSA 43300 was found to be 4 µM (≈ 5.49 µg/mL). The “MIC, E. faecalis 29212” value against E. faecalis 29212 worked out at 4 µM (≈ 5.49 µg/mL). Moreover, the “antimicrobial capacity after serum incubation” value in the series with E. coli ATCC 25922 [1] was “retained their original antimicrobial capacity”. For the same compound, the “MIC values against clinically isolated strains” value in [2] was at most 16 µM. The “critical aggregation concentration (CAC)” value in series [3] came out at 5.78 µM. Moreover, the “cell wall permeabilization, ciprofloxacin as the reference” value (from here on “cell wall permeabilization”) with S. aureus ATCC 29213 [4] (8 × 10^−6 M) is recorded as 48.48%. For the same compound, the “cell wall permeabilization” value in the series with S. aureus ATCC 29213 [4] (16 × 10^−6 M) is on record as 110.54%. In the series with E. coli ATCC 25922 [5], the “ATP levels decreased to” value is 66.07%. In the series on S. aureus ATCC 29213 [6], the “ATP levels decreased to” value is reported as 10.8%. The clinical signs entry with ICR female mice (20 mg kg^−1 intraperitoneal, ICR female mice, only two mice, within 1 h, n = 8) is “mild and transient symptoms”. In addition, the “body weight vs control group” value with ICR female mice (5, 10, 20 mg kg^−1 intraperitoneal, 3 days, p > 0.05, n = 8) is “no significant differences”. In addition, in the series with ICR female mice (5, 10, 20 mg kg^−1 intraperitoneal, day 3), the “histopathology of liver, spleen, kidney (H&E)” value is recorded as “did not inflict histopathological damage”. In addition, in the series on ICR female mice (setting [7]), the “levels of ALT, ALP, BUN, CREA and TBIL vs control group” value is reported as “no significant differences”; the “relative weights of the liver, spleen, and kidney” value is “remained comparable”. Besides, in “in vitro”, the amount remaining at 4 h is above 50% and the share remaining at 12 h was determined as 8.1%.

As for `CCCCCC(N)C(=O)NC(CCCCC)C(=O)NC(CCCCC)C(=O)NC(CCCCC)C(=O)N[C@H](CCCNC(=N)N)C(=O)N[C@@H](CCCNC(=N)N)C(=O)N[C@@H](CCCNC(=N)N)C(=O)N1CCC[C@H]1C(=O)O` (some centres unmarked) [Peptide B4] (H-[ξAhp(2)][ξAhp(2)][ξAhp(2)][ξAhp(2)][dR]RRP-OH; N-terminus assumed), the “MIC, P. aeruginosa 27853” value against P. aeruginosa 27853 turned out to be 16 µM (≈ 17.5 µg/mL). In the series on P. aeruginosa PAO1, the “MIC, P. aeruginosa PAO1” value came to 256 µM (≈ 280 µg/mL). For the same compound, the “MIC, MRSA 43300” value against MRSA 43300 turned out to be 16 µM (≈ 17.5 µg/mL). For the same compound, the “MIC, E. faecalis 29212” value against E. faecalis 29212 is 32 µM (≈ 35 µg/mL). For the same compound, the “antimicrobial capacity after serum incubation” value with E. coli ATCC 25922 [1] is reported as “retained their original antimicrobial capacity”. Besides, the “cell wall permeabilization” value with S. aureus ATCC 29213 [4] (8 × 10^−6 M) is recorded as 19.49%; in the series with S. aureus ATCC 29213 [4] (16 × 10^−6 M) it was 37.80%. The “ATP levels decreased to” value with S. aureus ATCC 29213 [6] turned out to be 71.18%.

The record behind these values is paper PMC12677699, “Utilizing Proteolytic‐Resistant Nano‐Short Peptide Based on Naphthyl Tail‐Anchored to Combat Bacterial Infections” (Advanced Science, 2025).
